Test results from patent US20230058412A1, “Carbohydrate-Modified Particles and Particulate Formulations for Modulating an Immune Response” (NORTHWESTERN UNIVERSITY, priority 2015, published 2023).

Columns and labels:
[1] = test system: RAW 264.7 macrophage; settings: cited from earlier work
[2] = test system: RAW264.7 cells; test: High-throughput screen of cytokine production by LPS-stimulated RAW264.7 macrophages; assay type: cell-based
Source text: Since macrophages are one immune cell thought to be important in immune responses, including tolerance through their production of a key immune mediator called Interleukin-10 (IL-10), we developed an in vitro approach to screening the effects of EDC-cells versus PLGA nanoparticles for their effects on IL-10 production.
We examined the proinflammatory response (IL-6) or anti-inflammatory response (IL-10), as outlined in FIG. 2.
Using the strategy in FIG. 2, we calculated the greatest fold change for cytokine production over a therapeutically relevant dose curve of 0.1, 1, 10, and 100 μM.
Using activated RAW macrophages we developed a high throughput screening method to identify tolerogenic signals.
In support of our overarching concept that ECDI-fixed NPs are lacking signals for induction of tolerogenic signals, we have examined the ability to modulate cytokine responses in a macrophage cell line (RAW264.7).

[3] = biological target: T1, CD209 (Homo sapiens, UniProt Q9NNX6); settings: cited from earlier work
T1 sequence (Q9NNX6 1-404): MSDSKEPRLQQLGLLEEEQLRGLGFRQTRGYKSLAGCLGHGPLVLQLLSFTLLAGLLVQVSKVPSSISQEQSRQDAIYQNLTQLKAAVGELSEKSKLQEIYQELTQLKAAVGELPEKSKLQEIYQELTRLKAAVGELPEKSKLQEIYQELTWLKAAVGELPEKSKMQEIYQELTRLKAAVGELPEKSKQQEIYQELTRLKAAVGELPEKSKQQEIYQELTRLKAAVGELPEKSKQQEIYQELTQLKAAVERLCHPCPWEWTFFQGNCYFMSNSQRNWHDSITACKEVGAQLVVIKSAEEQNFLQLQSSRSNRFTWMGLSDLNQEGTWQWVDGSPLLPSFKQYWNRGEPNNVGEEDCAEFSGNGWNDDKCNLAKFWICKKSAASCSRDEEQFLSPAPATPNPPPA

[4] = test system: allograft; settings: in vivo; cited from earlier work
[5] = biological target: T2, Mer (Homo sapiens, UniProt Q12866); settings: exogenous ligand; cited from earlier work
T2 sequence (Q12866 21-999): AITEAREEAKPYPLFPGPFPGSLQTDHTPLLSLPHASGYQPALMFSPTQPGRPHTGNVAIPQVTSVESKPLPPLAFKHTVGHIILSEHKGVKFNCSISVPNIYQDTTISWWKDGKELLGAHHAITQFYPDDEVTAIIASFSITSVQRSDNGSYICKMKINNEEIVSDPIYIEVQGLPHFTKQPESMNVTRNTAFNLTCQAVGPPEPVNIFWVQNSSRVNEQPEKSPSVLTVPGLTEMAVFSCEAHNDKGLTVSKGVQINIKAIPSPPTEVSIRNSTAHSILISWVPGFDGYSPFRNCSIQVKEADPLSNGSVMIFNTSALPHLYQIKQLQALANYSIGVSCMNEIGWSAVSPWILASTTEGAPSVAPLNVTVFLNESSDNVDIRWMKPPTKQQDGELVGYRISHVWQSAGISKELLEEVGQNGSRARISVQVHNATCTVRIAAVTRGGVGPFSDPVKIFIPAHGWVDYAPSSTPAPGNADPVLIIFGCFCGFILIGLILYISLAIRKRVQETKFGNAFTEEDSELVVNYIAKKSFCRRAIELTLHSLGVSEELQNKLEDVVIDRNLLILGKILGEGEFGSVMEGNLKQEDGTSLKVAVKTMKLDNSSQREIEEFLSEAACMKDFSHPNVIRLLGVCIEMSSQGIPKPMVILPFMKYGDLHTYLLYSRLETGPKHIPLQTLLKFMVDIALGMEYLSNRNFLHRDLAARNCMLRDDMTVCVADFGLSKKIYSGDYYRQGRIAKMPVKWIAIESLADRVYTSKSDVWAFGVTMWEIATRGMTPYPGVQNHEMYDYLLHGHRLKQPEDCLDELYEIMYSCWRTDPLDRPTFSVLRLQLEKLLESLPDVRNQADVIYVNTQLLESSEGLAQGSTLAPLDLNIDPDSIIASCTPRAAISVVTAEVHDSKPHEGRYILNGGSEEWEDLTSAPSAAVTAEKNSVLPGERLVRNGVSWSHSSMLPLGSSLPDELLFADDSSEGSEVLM

[6] = macrophages stimulated with LPS

CCCCCC(=O)CC(=O)/C=C/c1ccc(O)c(OC)c1 [6-dehydrogingerdione]
inflammatory response (decrease of pro-inflammatory cytokines, increase in IL-10/TGF13) [1]: inhibit this inflammatory response

C[C@H](O)[C@@H](O)[C@@H](O)[C@H](O)C=O [Fucose, L-Fucose]
tolerogenic signal (increase IL-10 secretion and/or decrease IL-6 secretion versus baseline) ([2]; macrophages activated with LPS, with or without ECDI-SP, dose curve 0.1, 1, 10, 100 μM): exhibiting a tolerogenic signal

CC(=O)N[C@H]1[C@H](O[C@H]2[C@@H](O)[C@@H](CO)O[C@@H](O[C@H]3[C@H](O)[C@@H](O)C(O)O[C@@H]3CO)[C@@H]2O)O[C@H](CO)[C@@H](O[C@@H]2O[C@H](CO)[C@H](O)[C@H](O)[C@H]2O)[C@@H]1O[C@@H]1O[C@@H](C)[C@@H](O)[C@@H](O)[C@@H]1O (some centres unmarked) [LNFPIII, Lacto-N-fuconentaose III]
binding and signalling through CD209 [3]: binds and signals through CD209 | allograft survival [4]: prolong allograft survival

CC(=O)N[C@H]1C(O)O[C@H](CO)[C@@H](O[C@@H]2O[C@H](CO)[C@H](O)[C@H](O)[C@H]2O)[C@@H]1O[C@@H]1O[C@@H](C)[C@@H](O)[C@@H](O)[C@@H]1O (some centres unmarked) [Lewis^x antigen]
IL-6 production [2, 6]: suppression of IL-6 production | IL-10 production [2, 6]: enhancement of IL-10

Nc1ncnc2c1ncn2[C@@H]1O[C@H](CO)[C@@H](O)[C@H]1O [adenosine]
inflammatory response (decrease of pro-inflammatory cytokines, increase in IL-10/TGF13) [1]: inhibit this inflammatory response

C[C@H]1CC[C@@H]2N(C1)C[C@H]1[C@@H]3C[C@H]4[C@@H](C[C@H](O)[C@H]5C[C@@H](O)CC[C@@]54C)[C@@H]3CC[C@@H]1[C@]2(C)O [peimine]
inflammatory response (decrease of pro-inflammatory cytokines, increase in IL-10/TGF13) [1]: inhibit this inflammatory response

C[C@H]1O[C@@H](O[C@H]2CC[C@@]3(C)[C@@H](CC[C@]4(C)[C@@H]3C=C[C@]35OC[C@@]6(CCC(C)(C)C[C@H]63)[C@@H](O)C[C@]54C)[C@]2(C)CO)[C@H](O)[C@@H](O[C@@H]2O[C@H](CO)[C@@H](O)[C@H](O)[C@H]2O)[C@H]1O [saikosaponin A]
inflammatory response (decrease of pro-inflammatory cytokines, increase in IL-10/TGF13) [1]: inhibit this inflammatory response

GAS6: Growth Arrest-Specific 6, cognate ligand for TAM RTKs
tyrosine autophosphorylation / signalling of Mer [5]: stimulate tyrosine autophosphorylation of both Mer and Ax1

Protein S: cognate ligand for TAM RTKs
tyrosine autophosphorylation / signalling of Mer [5]: only capable of signaling through Mer
